The term solubility denotes the concentration that dissolves in the medium under given conditions. The term IC50 denotes the midpoint of a concentration-inhibition curve.

Data set [1] can be described thus: Solubility in PBS pH 7.4 by HPLC-UV. Format: physicochemical. Particulars: PBS buffer, aqueous buffer, kinetic from dmso stock; PBS pH 7.4, about 2% DMSO, 120 minutes at room temperature. Here is the method: Methods and Procedure: This study was designed in compliance with previously described procedures to assure data integrity and adherence to GLP principles. Control compounds included ibuprofen as a reference for high solubility and progesterone as a reference for low solubility. Stock solutions of compounds described herein (20 mM) were prepared in DMSO, on the same day of the experiment when feasible.
These solutions were compared with an external standard solution of known concentration via HPLC-UV To prepare the standard, 4 μL from a 20 mM compound stock solution was added to DMSO in a vial/well, and mixed with shaking at room temperature for 10 minutes. […]
Concentrations were determined by comparing UV absorbance of the test solution and of the known standard solution following HPLC separation using a generic fast gradient method employing a DAD detector and UV detection at 230 and 254 nm. […] The solubility of each compound was expressed as the ratio of compound amount in the sample test solution to the amount of compound in the standard solution, calculated from the equation “solubility of sample=peak area of sample/peak area of standard×concentration of standard.”

The next data set concerns the target T1, CYP1A2 (Homo sapiens, UniProt P05177).
T1 construct: host or cells: recombinant microsomes
T1 sequence (P05177 1-516): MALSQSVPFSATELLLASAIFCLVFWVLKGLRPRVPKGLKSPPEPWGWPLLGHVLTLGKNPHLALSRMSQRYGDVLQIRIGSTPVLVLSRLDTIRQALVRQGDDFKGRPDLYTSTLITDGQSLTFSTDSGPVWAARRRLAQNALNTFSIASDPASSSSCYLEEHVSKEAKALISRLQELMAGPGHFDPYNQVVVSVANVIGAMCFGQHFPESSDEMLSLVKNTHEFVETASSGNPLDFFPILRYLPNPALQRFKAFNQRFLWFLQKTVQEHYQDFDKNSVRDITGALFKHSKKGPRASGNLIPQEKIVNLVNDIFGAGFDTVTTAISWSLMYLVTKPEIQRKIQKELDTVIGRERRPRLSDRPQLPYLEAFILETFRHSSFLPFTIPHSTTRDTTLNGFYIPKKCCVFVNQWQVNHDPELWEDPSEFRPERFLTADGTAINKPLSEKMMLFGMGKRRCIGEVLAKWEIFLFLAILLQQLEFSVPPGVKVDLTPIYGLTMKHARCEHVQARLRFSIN
The data set can be described thus: CYP450 inhibition, fluorescent probe, recombinant microsomes: CYP1A2. It counts as in vitro ADME. How it is done:
Methods and Procedure: The study was performed in agreement with previously described procedures to assure data integrity and adherence to GLP standards. Briefly, recombinant human CYP450 isoenzymes were used to metabolize pro-fluorescent probe substrates to fluorescent products. IC50 values determined from the effect of test compounds on the metabolism of these probe substrates were then used to determine inhibitory potency against CYP450 isoforms.
The test system was based on a three-step procedure with a “mix and read” format, where PGP-432,TI reaction and reading were performed at 37° C. […] Fluorescence was measured in kinetic mode (1 read/minutes for 10 minutes), and the fluorescence rate was calculated. […]
Microsomes were added to the buffer prior to the substrate addition. […] For fluorescence measurement, 10 μL/well of the test compounds were transferred from the compound plate to the assay plate using Biomek FX and the appropriate protocol. […]
10 μL/well of the cofactor was then added to the assay plate using the Multidrop before placing the assay plate in the plate reader EnVision to measure fluorescence. […]
Next, 10 μL/well from the compound plate was added and incubated for 10 minutes at 37° C. on a plate shaker, while a mixture of Vivid Substrate and Vivid NADP+ in Vivid CYP450 Reaction Buffer was prepared. […] Regarding data analysis, the inhibition effect is expressed as a percentage. […]

In brackets after ≈: the same amount, converted by molar mass.

`Clc1ccc(C23CNC(CO2)C3)cc1Cl` (stereo not shown) [522A, 1-(3,4-dichlorophenyl)-2-oxa-5-azabicyclo[2.2.1]heptane] displayed a solubility at 120 min in data set [1] of 384 µM (≈ 93.6 µg/mL). For the same molecule, on CYP1A2 (recombinant human CYP1A2), the IC50 was over 50 µM.

Consider `CNC(C)Cc1ccc2c(c1)OCO2` (stereo not shown) [MDMA, reference compound], for which the solubility at 120 min in data set [1] was 386 µM (≈ 74.6 µg/mL). For the same molecule, on CYP1A2 (human, recombinant microsomes expressing CYP1A2), the IC50 at 10 min stood at 50 µM.

For the origin of these results see US12595269B2, “Morpholine-like monoamine releasers” (Solvonis Therapeutics Ireland Holdings Limited, priority 2022, dated 2026).
